doi:10.1101/2023.11.24.568596v1 (biorxiv, 2023)

Tests used:
Conditions in all cases: binder
MAPKAPK2 = MAPKAPK2 (Homo sapiens, UniProt P49137)
MARK4 = molecular target: T1, MARK4 (Homo sapiens, UniProt Q96L34)
T1 sequence (Q96L34 1-752): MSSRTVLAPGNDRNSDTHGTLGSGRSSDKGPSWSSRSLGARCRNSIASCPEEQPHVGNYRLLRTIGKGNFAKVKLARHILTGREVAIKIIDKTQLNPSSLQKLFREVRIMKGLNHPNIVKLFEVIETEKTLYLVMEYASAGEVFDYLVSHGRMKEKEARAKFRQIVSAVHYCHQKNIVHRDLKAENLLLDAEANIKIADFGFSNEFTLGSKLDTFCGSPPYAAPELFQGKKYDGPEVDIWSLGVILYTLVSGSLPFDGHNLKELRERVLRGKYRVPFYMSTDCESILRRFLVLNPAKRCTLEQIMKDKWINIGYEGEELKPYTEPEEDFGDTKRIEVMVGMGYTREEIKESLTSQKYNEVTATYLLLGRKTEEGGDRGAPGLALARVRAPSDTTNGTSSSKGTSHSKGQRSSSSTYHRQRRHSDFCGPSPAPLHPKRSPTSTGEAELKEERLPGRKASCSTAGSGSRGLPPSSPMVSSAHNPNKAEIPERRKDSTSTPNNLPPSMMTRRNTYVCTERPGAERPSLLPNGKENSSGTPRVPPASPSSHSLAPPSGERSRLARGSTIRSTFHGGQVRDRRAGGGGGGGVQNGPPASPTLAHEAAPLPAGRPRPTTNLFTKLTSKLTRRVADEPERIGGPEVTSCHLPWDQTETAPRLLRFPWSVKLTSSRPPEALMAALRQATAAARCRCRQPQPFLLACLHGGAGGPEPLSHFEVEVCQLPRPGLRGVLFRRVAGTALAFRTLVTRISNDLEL

FGFR2 = FGFR2 (Homo sapiens, UniProt P21802)
Sequence of FGFR2 (P21802 whole entry): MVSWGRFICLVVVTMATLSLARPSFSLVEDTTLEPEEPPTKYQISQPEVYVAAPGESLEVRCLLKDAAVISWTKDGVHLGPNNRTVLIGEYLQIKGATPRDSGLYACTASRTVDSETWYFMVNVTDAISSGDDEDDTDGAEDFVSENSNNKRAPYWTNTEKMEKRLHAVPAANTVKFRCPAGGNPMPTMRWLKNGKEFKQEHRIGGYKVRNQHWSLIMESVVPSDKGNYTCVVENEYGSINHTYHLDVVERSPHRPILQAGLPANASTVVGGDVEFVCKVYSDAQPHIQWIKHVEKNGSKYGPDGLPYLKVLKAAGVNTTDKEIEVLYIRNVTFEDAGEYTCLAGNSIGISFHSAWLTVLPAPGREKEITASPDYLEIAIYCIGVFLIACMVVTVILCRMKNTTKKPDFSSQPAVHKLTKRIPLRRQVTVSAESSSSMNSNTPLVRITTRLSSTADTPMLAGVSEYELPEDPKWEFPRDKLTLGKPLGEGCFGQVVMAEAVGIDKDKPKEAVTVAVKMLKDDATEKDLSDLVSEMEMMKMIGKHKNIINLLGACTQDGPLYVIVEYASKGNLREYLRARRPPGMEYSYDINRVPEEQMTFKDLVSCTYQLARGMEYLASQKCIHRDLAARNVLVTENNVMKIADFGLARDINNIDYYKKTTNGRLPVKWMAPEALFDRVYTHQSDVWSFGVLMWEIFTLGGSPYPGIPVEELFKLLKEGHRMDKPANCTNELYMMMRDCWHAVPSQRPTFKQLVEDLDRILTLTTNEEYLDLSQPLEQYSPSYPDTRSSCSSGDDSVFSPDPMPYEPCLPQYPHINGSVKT

CaMK4 = molecular target: T2, CaMK4 (Homo sapiens, UniProt Q16566)
T2 sequence (Q16566 1-473): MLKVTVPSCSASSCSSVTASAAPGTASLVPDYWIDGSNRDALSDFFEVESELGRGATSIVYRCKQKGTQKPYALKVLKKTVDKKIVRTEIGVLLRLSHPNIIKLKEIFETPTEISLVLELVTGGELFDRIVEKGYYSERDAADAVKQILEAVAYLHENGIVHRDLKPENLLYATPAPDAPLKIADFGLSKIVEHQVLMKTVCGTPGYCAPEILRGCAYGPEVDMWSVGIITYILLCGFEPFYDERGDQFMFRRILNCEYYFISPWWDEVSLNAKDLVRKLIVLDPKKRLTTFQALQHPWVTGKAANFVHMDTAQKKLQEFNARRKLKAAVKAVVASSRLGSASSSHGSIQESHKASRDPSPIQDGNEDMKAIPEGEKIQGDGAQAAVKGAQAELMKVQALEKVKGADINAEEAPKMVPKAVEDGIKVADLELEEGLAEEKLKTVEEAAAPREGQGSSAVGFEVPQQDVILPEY

GPRK5 = GPRK5 (Homo sapiens, UniProt P34947)
BRAF = BRAF (Homo sapiens, UniProt P15056)
Sequence of BRAF (P15056 whole entry): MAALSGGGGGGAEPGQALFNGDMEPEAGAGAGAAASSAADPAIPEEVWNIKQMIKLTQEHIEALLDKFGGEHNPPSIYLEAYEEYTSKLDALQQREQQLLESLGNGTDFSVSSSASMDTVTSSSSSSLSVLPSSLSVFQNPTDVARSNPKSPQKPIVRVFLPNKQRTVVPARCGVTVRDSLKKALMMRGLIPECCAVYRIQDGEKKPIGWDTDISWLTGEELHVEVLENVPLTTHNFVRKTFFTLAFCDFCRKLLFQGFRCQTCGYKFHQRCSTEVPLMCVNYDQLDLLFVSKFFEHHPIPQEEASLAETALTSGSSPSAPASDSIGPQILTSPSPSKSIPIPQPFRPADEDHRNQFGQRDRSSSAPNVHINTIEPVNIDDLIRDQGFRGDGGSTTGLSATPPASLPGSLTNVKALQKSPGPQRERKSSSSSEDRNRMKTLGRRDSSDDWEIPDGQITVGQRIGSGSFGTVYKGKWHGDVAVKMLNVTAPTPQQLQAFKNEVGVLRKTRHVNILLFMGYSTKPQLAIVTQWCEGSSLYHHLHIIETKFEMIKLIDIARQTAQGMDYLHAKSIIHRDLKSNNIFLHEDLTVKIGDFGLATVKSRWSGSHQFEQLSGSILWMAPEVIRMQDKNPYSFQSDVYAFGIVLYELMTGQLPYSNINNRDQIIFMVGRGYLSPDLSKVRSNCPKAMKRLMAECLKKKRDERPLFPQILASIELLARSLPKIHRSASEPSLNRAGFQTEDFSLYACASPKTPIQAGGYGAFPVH

FES = FES (Homo sapiens, UniProt P07332)
JNK1 = JNK1 (Homo sapiens, UniProt P45983)
Sequence of JNK1 (P45983 whole entry): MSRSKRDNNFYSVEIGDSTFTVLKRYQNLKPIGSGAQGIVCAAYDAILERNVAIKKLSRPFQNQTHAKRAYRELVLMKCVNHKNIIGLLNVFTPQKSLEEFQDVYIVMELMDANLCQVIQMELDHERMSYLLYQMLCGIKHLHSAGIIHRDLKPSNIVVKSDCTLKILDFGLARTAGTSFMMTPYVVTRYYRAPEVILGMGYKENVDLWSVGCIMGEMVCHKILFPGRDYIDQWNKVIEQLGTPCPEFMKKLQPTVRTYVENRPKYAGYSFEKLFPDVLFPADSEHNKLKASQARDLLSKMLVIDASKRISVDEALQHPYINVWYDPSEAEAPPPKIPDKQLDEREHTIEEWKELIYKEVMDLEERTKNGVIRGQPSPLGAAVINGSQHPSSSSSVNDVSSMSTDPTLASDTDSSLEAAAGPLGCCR

EphB3 = molecular target: T3, EphB3 (Homo sapiens, UniProt P54753)
T3 sequence (P54753 1-998): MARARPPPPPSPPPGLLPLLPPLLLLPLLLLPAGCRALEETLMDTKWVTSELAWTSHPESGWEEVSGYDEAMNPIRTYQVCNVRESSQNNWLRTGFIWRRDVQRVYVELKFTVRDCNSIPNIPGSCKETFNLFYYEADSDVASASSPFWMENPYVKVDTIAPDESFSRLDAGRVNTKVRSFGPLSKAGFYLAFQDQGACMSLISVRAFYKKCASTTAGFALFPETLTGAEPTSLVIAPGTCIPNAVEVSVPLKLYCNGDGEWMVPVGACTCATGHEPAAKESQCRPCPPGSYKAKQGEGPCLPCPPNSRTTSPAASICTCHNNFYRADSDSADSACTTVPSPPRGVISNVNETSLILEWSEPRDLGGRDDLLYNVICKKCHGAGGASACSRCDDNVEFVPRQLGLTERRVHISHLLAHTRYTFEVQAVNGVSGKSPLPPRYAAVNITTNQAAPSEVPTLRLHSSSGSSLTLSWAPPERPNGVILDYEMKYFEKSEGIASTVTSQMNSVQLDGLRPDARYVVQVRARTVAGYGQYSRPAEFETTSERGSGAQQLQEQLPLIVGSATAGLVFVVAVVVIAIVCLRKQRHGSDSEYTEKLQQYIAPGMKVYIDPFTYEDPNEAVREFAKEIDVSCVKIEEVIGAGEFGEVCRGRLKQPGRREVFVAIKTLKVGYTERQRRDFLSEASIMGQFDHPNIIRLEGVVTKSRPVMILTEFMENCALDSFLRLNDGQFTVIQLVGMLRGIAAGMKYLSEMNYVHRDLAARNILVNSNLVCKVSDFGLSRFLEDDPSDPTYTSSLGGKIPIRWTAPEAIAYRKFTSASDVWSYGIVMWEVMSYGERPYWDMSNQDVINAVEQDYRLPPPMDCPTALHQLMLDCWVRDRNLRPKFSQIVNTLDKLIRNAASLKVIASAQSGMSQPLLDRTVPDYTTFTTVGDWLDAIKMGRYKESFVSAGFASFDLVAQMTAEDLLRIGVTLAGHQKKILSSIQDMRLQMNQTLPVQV

Wnk1 = Wnk1 (Homo sapiens, UniProt Q9H4A3)
Sequence of Wnk1 (Q9H4A3 whole entry): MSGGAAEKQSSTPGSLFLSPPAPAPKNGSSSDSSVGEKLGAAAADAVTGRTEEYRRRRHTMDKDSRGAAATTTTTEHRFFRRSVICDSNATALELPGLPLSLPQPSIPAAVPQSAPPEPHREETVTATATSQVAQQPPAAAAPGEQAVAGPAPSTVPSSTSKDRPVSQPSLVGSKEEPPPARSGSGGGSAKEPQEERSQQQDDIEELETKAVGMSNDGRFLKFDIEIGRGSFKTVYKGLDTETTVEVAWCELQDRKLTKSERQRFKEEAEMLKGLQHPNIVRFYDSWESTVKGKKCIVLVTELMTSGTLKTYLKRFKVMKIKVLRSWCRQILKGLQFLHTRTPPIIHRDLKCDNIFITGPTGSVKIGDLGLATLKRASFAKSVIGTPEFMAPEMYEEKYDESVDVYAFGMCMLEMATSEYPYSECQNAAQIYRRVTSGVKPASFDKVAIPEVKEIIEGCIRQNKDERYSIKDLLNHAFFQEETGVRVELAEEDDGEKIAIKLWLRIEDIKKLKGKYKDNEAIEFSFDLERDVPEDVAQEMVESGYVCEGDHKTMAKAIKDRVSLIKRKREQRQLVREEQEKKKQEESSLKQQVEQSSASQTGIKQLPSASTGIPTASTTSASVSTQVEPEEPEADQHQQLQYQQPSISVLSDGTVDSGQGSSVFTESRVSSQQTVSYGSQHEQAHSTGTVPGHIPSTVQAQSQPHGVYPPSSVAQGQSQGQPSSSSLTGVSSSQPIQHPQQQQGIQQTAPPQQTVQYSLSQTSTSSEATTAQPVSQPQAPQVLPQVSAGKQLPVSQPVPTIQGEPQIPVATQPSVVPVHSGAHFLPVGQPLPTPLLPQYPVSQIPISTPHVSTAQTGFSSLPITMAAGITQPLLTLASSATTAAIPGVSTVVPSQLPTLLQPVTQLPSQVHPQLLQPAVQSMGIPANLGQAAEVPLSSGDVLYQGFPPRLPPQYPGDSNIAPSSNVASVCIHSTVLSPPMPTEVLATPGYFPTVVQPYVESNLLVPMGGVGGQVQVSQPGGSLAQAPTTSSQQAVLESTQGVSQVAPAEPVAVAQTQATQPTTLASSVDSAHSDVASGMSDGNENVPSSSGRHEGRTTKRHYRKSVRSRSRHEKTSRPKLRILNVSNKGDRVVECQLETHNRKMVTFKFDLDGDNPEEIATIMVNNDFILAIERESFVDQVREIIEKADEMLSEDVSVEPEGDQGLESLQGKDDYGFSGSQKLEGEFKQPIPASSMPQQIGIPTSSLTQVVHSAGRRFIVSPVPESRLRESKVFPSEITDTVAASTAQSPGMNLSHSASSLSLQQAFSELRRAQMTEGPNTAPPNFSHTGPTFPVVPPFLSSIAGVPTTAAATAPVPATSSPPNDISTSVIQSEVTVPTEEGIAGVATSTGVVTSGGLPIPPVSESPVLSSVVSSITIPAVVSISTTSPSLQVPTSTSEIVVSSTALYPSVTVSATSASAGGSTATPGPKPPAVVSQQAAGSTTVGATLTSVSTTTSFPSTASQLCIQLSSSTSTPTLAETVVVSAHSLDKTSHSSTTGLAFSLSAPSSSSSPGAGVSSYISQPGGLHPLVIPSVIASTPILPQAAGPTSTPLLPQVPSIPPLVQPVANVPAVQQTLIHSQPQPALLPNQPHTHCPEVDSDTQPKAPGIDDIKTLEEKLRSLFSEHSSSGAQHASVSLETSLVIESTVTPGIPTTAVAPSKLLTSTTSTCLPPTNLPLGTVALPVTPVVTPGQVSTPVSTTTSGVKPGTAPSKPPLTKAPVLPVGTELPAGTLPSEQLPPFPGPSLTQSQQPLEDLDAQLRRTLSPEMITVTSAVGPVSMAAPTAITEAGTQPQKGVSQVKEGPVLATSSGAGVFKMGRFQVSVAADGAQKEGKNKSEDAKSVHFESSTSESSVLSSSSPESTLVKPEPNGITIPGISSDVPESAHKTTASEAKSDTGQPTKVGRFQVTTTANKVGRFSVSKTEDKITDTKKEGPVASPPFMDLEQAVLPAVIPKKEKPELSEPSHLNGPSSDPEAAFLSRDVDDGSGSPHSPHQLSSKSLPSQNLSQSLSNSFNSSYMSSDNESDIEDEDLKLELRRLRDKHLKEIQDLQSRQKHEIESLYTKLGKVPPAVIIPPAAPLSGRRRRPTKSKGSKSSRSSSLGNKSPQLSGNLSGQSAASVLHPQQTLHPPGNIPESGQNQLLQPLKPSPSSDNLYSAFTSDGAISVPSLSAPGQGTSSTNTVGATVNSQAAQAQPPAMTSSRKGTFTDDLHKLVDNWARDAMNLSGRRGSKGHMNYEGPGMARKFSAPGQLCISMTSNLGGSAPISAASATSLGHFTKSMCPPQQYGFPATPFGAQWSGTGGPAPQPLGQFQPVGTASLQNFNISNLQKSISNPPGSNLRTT

Sequence of MAPKAPK2 (P49137 whole entry): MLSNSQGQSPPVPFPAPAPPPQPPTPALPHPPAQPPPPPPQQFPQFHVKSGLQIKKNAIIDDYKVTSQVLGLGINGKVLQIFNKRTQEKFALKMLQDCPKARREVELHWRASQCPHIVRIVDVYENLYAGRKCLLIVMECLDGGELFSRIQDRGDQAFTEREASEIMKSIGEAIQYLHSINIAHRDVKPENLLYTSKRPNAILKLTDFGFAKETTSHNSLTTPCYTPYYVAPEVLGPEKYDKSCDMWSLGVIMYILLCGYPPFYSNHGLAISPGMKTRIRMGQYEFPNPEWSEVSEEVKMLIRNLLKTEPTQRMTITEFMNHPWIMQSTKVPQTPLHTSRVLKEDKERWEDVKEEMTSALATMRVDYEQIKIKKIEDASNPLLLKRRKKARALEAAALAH

## Cc1cccc(-c2ccc(-c3cc4cnc(Nc5ccc(F)c(CO)c5)nc4n(CCCCN)c3=O)c(Cl)c2)n1 [compound 33, 8-(4-Aminobutyl)-6-(2-chloro-4-(6-methylpyridin-2-yl)phenyl)-2-((4-fluoro-3-(hydroxymethyl)phenyl)amino)pyrido[2,3-d]pyrimidin-7(8H)-one]
MAPKAPK2
  dTm 33: -0.5 °C
MARK4
  dTm 33: 10.3 °C
FGFR2
  dTm 33: 3.3 °C
CaMK4
  dTm 33: 5.2 °C
GPRK5
  dTm 33: -0.8 °C
BRAF
  dTm 33: 6.3 °C
FES
  dTm 33: 8.9 °C
JNK1
  dTm 33: 2.2 °C
EphB3
  dTm 33: 8.7 °C
Wnk1
  dTm 33: 3.3 °C

## COc1ccc(O)c(Nc2ncc3cc(-c4ccc(-c5cccc(C)n5)cc4Cl)c(=O)n(CCCCN)c3n2)c1 [compound 34, 8-(4-Aminobutyl)-6-(2-chloro-4-(6-methylpyridin-2-yl)phenyl)-2-((2-hydroxy-5-methoxy-phenyl)amino)pyrido[2,3-d]pyrimidin-7(8H)-one]
MAPKAPK2
  dTm 34: -0.1 °C
MARK4
  dTm 34: 4.6 °C
FGFR2
  dTm 34: 2.0 °C
CaMK4
  dTm 34: 3.9 °C
GPRK5
  dTm 34: -0.7 °C
BRAF
  dTm 34: 1.1 °C
FES
  dTm 34: 7.6 °C
JNK1
  dTm 34: 1.8 °C
EphB3
  dTm 34: 4.1 °C
Wnk1
  dTm 34: 0.8 °C

## COc1cc(N2CCOCC2)ccc1Nc1ncc2cc(-c3ccc(-c4cccc(C)n4)cc3Cl)c(=O)n(CCCCN)c2n1 [compound 35, 8-(4-Aminobutyl)-6-(2-chloro-4-(6-methylpyridin-2-yl)phenyl)-2-((2-methoxy-4-morpholino-phenyl)amino)pyrido[2,3-d]pyrimidin-7(8H)-one]
MAPKAPK2
  dTm 35: -0.6 °C
MARK4
  dTm 35: 6.6 °C
FGFR2
  dTm 35: 2.4 °C
CaMK4
  dTm 35: 5.7 °C
GPRK5
  dTm 35: -2.1 °C
BRAF
  dTm 35: 0.8 °C
FES
  dTm 35: 8.3 °C
JNK1
  dTm 35: 4.7 °C
EphB3
  dTm 35: 4.5 °C
Wnk1
  dTm 35: 2.7 °C

## COc1cc(N2CCN(C)CC2)ccc1Nc1ncc2cc(-c3ccc(-c4cccc(C)n4)cc3Cl)c(=O)n(CCCCN)c2n1 [compound 36, 8-(4-Aminobutyl)-6-(2-chloro-4-(6-methylpyridin-2-yl)phenyl)-2-((2-methoxy-4-(4-methylpiperazin-1-yl)phenyl)amino)pyrido[2,3-d]pyrimidin-7(8H)-one]
MAPKAPK2
  dTm 36: -0.1 °C
MARK4
  dTm 36: 7.4 °C
FGFR2
  dTm 36: 2.9 °C
CaMK4
  dTm 36: 3.2 °C
GPRK5
  dTm 36: -1.3 °C
BRAF
  dTm 36: 0.8 °C
FES
  dTm 36: 9.0 °C
JNK1
  dTm 36: 1.7 °C
EphB3
  dTm 36: 3.3 °C
Wnk1
  dTm 36: 1.5 °C
